Tested on: Erysiphe graminis f.sp. tritici
Test: Erysiphe graminis f.sp. tritici (wheat powdery mildew) leaf disk assay
Type: in vivo
Details: Blumeria graminis, foliar, 96 h, preventive, four days after inoculation, read-out: control of fungal infection, Erysiphe graminis fsp. tritici

Row | SMILES | pest or weed control at 200 ppm
1 | COc1cc(OC2C[C@H]3CC[C@@H](C2)N3c2ncnc3sccc23)cc(OC)c1OC (stereo partly drawn) [Example 1.13] | ≥ 80%
2 | Cc1ccc(-c2nc(Cl)c(C)c(OC3C[C@H]4CC[C@@H](C3)N4c3ncnc4sccc34)n2)cc1 (stereo partly drawn) [Example 1.97] | ≥ 80%
3 | CCCCCCOc1ccc(OC2C[C@H]3CC[C@@H](C2)N3c2ncnc(CC)c2Cl)cc1 (stereo partly drawn) [Example 1.140] | ≥ 80%
4 | CCc1ncnc(N2[C@@H]3CC[C@H]2CC(Oc2ccc(C)cc2)C3)c1Cl (stereo partly drawn) [Example 1.162] | ≥ 80%
5 | CCc1ncnc(N2[C@@H]3CC[C@H]2CC(Oc2ccc(Br)cc2C)C3)c1Cl (stereo partly drawn) [Example 1.180] | ≥ 80%
6 | CCc1ncnc(N2[C@@H]3CC[C@H]2CC(Oc2cc(Cl)c(Cl)cc2Cl)C3)c1Cl (stereo partly drawn) [Example 1.196] | ≥ 80%
7 | CCc1ncnc(N2[C@@H]3CC[C@H]2CC(Oc2ccc(C(C)(C)C)cc2C(C)(C)C)C3)c1Cl (stereo partly drawn) [Example 1.221] | ≥ 80%
8 | COc1ccccc1OC1C[C@H]2CC[C@@H](C1)N2c1ncnc2sccc12 (stereo partly drawn) [Example 2.4] | ≥ 80%
9 | c1cc(OC2C[C@H]3CC[C@@H](C2)N3c2ncnc3sccc23)ccn1 (stereo partly drawn) [Example 2.7] | ≥ 80%
10 | Cc1ccc(OC2C[C@H]3CC[C@@H](C2)N3c2ncnc3sccc23)cc1 (stereo partly drawn) [Example 2.8] | ≥ 80%
11 | Fc1ccc(OC2C[C@H]3CC[C@@H](C2)N3c2ncnc3sccc23)cc1 (stereo partly drawn) [Example 2.11] | ≥ 80%
12 | Clc1ccc(Oc2cccc(OC3C[C@H]4CC[C@@H](C3)N4c3ncnc4sccc34)c2)cc1 (stereo partly drawn) [Example 2.15] | ≥ 80%
13 | COc1ccc(OC2C[C@H]3CC[C@@H](C2)N3c2ncnc3sccc23)c(Cl)c1 (stereo partly drawn) [Example 2.16] | ≥ 80%
14 | N#Cc1ccc(OC2C[C@H]3CC[C@@H](C2)N3c2ncnc3sccc23)cc1 (stereo partly drawn) [Example 2.22] | ≥ 80%
15 | Fc1cccc(OC2C[C@H]3CC[C@@H](C2)N3c2ncnc3sccc23)c1F (stereo partly drawn) [Example 2.24] | ≥ 80%
16 | CC(C)(C)c1ccc(OC2C[C@H]3CC[C@@H](C2)N3c2ncnc3sccc23)cc1 (stereo partly drawn) [Example 2.26] | ≥ 80%
17 | c1nc(C2C[C@H]3CC[C@@H](C2)N3c2ncnc3sccc23)c2ccsc2n1 (stereo partly drawn) [Example 2.28] | ≥ 80%
18 | CC(C)(C)CC(C)(C)c1ccc(OC2C[C@H]3CC[C@@H](C2)N3c2ncnc3sccc23)cc1 (stereo partly drawn) [Example 2.35] | ≥ 80%
19 | Fc1c(F)c(F)c(OC2C[C@H]3CC[C@@H](C2)N3c2ncnc3sccc23)c(F)c1F (stereo partly drawn) [Example 2.38] | ≥ 80%
20 | CSc1ccc(OC2C[C@H]3CC[C@@H](C2)N3c2ncnc3sccc23)cc1C (stereo partly drawn) [Example 2.41] | ≥ 80%
21 | Cc1ccc(C(C)(C)C)c(OC2C[C@H]3CC[C@@H](C2)N3c2ncnc3sccc23)c1 (stereo partly drawn) [Example 2.43] | ≥ 80%
22 | CC(C)(C)c1ccc(OC2C[C@H]3CC[C@@H](C2)N3c2ncnc3sccc23)c(C(C)(C)C)c1 (stereo partly drawn) [Example 2.45] | ≥ 80%
23 | CCC(C)c1cccc(C(C)CC)c1OC1C[C@H]2CC[C@@H](C1)N2c1ncnc2sccc12 (stereo partly drawn) [Example 2.46] | ≥ 80%
24 | Cc1ccc(-c2c(C)cccc2C)c(C)c1OC1C[C@H]2CC[C@@H](C1)N2c1ncnc2sccc12 (stereo partly drawn) [Example 2.49] | ≥ 80%
25 | c1ccc2c(c1)CCC2c1ccc(OC2C[C@H]3CC[C@@H](C2)N3c2ncnc3sccc23)cc1 (stereo partly drawn) [Example 2.53] | ≥ 80%
26 | CC(=O)c1cc(Cl)c2ccccc2c1OC1C[C@H]2CC[C@@H](C1)N2c1ncnc2sccc12 (stereo partly drawn) [Example 2.59] | ≥ 80%

Row | SMILES | pest or weed control at 200 ppm
27 | c1ccc(-c2nnco2)c(OC2C[C@H]3CC[C@@H](C2)N3c2ncnc3sccc23)c1 (stereo partly drawn) [Example 2.68] | ≥ 80%
28 | Cc1nsc(Oc2ccc(OC3C[C@H]4CC[C@@H](C3)N4c3ncnc4scc(C)c34)cc2)n1 (stereo partly drawn) [Example 2.72] | ≥ 80%
29 | CCc1ncnc(N2[C@@H]3CC[C@H]2CC(Oc2cccc(Oc4nc(C)ns4)c2)C3)c1Cl (stereo partly drawn) [Example 2.89] | ≥ 80%
30 | CCc1ncnc(N2[C@@H]3CC[C@H]2CC(Oc2ccc(Oc4nc(C)ns4)cc2)C3)c1Cl (stereo partly drawn) [Example 2.91] | ≥ 80%
31 | Cc1c(Cl)ncnc1N1[C@@H]2CC[C@H]1CC(Oc1cccc(C(F)(F)F)n1)C2 (stereo partly drawn) [Example 2.94] | ≥ 80%
32 | CCc1ncnc(N2[C@@H]3CC[C@H]2CC(Oc2cccc(F)c2)C3)c1Cl (stereo partly drawn) [Example 2.117] | ≥ 80%
33 | CCc1ncnc(N2[C@@H]3CC[C@H]2CC(Oc2ccc(F)c(F)c2)C3)c1Cl (stereo partly drawn) [Example 2.125] | ≥ 80%
34 | CCOc1cc(C)ccc1OC1C[C@H]2CC[C@@H](C1)N2c1ncnc(CC)c1Cl (stereo partly drawn) [Example 2.126] | ≥ 80%
35 | CCc1ncnc(N2[C@@H]3CC[C@H]2CC(Oc2ccc(C(C)(C)c4ccc(O)cc4)cc2)C3)c1Cl (stereo partly drawn) [Example 2.131] | ≥ 80%
36 | CCc1ncnc(N2[C@@H]3CC[C@H]2CC(Oc2ccc(C(=O)c4ccccc4)cc2)C3)c1Cl (stereo partly drawn) [Example 2.141] | ≥ 80%
37 | CCc1ncnc(N2[C@@H]3CC[C@H]2CC(Oc2ccc(OC)cc2Cl)C3)c1Cl (stereo partly drawn) [Example 2.142] | ≥ 80%
38 | CCc1ncnc(N2[C@@H]3CC[C@H]2CC(Oc2ccccc2C(F)(F)F)C3)c1Cl (stereo partly drawn) [Example 2.146] | ≥ 80%
39 | CCc1ncnc(N2[C@@H]3CC[C@H]2CC(Oc2cccc(C(F)(F)F)c2F)C3)c1Cl (stereo partly drawn) [Example 2.148] | ≥ 80%
40 | COCc1ncnc(N2[C@@H]3CC[C@H]2CC(Oc2cc(C(F)(F)F)ccn2)C3)c1OC (stereo partly drawn) [Example 2.152] | ≥ 80%
41 | CCc1ncnc(N2[C@@H]3CC[C@H]2CC(Oc2ccc(C4CCc5ccccc54)cc2)C3)c1Cl (stereo partly drawn) [Example 2.173] | ≥ 80%
42 | CCc1ncnc(N2[C@@H]3CC[C@H]2CC(Oc2ccc(Br)cc2C(C)=O)C3)c1Cl (stereo partly drawn) [Example 2.182] | ≥ 80%
43 | CCc1ncnc(N2[C@@H]3CC[C@H]2CC(Oc2c(C(C)=O)cc(Cl)c4ccccc24)C3)c1Cl (stereo partly drawn) [Example 2.187] | ≥ 80%
44 | CCc1ncnc(N2[C@@H]3CC[C@H]2CC(Oc2ccccc2-c2nnc(C(C)(C)C)o2)C3)c1Cl (stereo partly drawn) [Example 2.190] | ≥ 80%
45 | FC(F)(F)c1ccnc(OC2C[C@H]3CC[C@@H](C2)N3c2ccnc3cc(Cl)ccc23)c1 (stereo partly drawn) [Example 2.192] | ≥ 80%
46 | Cc1nsc(N2[C@@H]3CC[C@H]2CC(Oc2ccc(C(F)(F)F)cn2)C3)n1 (stereo partly drawn) [Example 2.203] | ≥ 80%
47 | CCC(=O)c1cc(F)c(OC2C[C@H]3CC[C@@H](C2)N3c2ncnc(CC)c2Cl)c(F)c1 (stereo partly drawn) [Example 2.207] | ≥ 80%
48 | Cn1nc(C(F)(F)F)c(Cl)c1C(=O)N1[C@@H]2CC[C@H]1CC(Oc1cc(C(F)(F)F)ccn1)C2 (stereo partly drawn) [Example 2.220] | ≥ 80%
49 | CCc1ncnc(N2C3CCC2CC(=NOCc2c4ccccc4cc4ccccc24)C3)c1Cl [Example 5.9] | ≥ 80%
50 | CCc1ncnc(N2C3CCC2CC(=NOCc2ccc(C(C)(C)C)cc2)C3)c1Cl [Example 5.26] | ≥ 80%
51 | CCc1ncnc(N2C3CCC2CC(=NOCc2ccccc2CCl)C3)c1Cl [Example 5.42] | ≥ 80%

— US20100331348A1, “TROPANE DERIVATIVES USEFUL AS PESTICIDES” (SYNGENTA CROP PROTECTION, INC., priority 2007, published 2010)
